In paper PMC12566046, “Arylpiperazinyl-Benzocycloheptapyrrole-Carboxamides Endowed with Dual Anticancer and Antiviral Activities” (Molecules, 2025):
pEC50: −log10 of the molar value.

Legend:
[1] = test system: SK-MEL-5 (melanoma cell line); experiment: NCI-60 five-dose assay
[2] = test system: UACC-257 (melanoma cell line); experiment: NCI-60 five-dose assay
[3] = test system: ZIKV, strain Brazil/2016/INMI1; experiment: ZIKV viral yield reduction assay on Huh-7 cells; type: cell-based, Zika virus; details: Zika virus; preliminary screening (50, 5, 0.5 μM), Huh-7; read-out: ZIKV/Huh‐7 EC50
In short: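 Huh-7 cells infected with ZIKV at MOI 1 for 2 h at 37 °C, compounds added right after infection in duplicate at 50, 5 and 0.5 μM. Supernatants taken at 48 h and titrated by plaque assay on VERO E6 under carboxymethyl cellulose with crystal violet staining. % inhibition from PFU/mL versus DMSO-treated control; SI = CC50/EC50.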

[4] = test system: NCI-60 cell line panel; experiment: NCI-60 single-dose assay, whole panel; type: cell-based, human; details: summary over the panel
In short: (§1)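 Read-out is cytotoxic activity from a single-concentration test; the panel spans nine human cancer types, including leukemia, lung, colon and renal.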

[5] = test system: Colon Cancer panel; experiment: NCI-60 five-dose assay, panel-level GI50 (mean graph midpoint, range); type: cell-based, human; details: Homo sapiens; Colon Cancer panel average; read-out: GI50 mean graph midpoint (MG_MID)
Description: Due to these preliminary results, six compounds, 1, 5, 10, 11, 17, and 20, were selected for the five-dose screen NCI-programme against the same panel of tumour cell lines.
Next, a mean graph midpoint (MG_MD) was calculated for compounds 1, 5, 10, 11, 17, and 20 and reported as waterfall graphs GI50, TGI, and LC50 in the Supplementary Materials (Figures S69–S86). In Table 9, we reported the average GI50 for the nine-cancer panels, underlining both the activity and selectivity for compounds 1, 10, 11, and 20.

[6] = test system: UACC-62 (melanoma cell line); experiment: NCI-60 five-dose assay
[7] = test system: SK-MEL-2 (melanoma cell line); experiment: NCI-60 five-dose assay
[8] = test system: M14 (melanoma cell line); experiment: NCI-60 five-dose assay
[9] = test system: MOLT-4 (leukemia cell line); experiment: NCI-60 single-dose assay; type: cell-based, human; details: Homo sapiens, MOLT-4, read-out: growth inhibition (GI%) and cytotoxicity (negative values)
In short: as §1

[10] = test system: UACC-257 (melanoma cell line); experiment: NCI-60 single-dose assay; type: cell-based, human; details: human
In short: as §1

[11] = test system: UACC-62 (melanoma cell line); experiment: NCI-60 single-dose assay; type: cell-based, human; details: human
In short: as §1

[12] = test system: SR (leukemia cell line); experiment: NCI-60 single-dose assay; type: cell-based, human; details: Homo sapiens, read-out: growth inhibition (GI%) and cytotoxicity (negative values)
In short: as §1

[13] = test system: HCC-2998 (colon cancer cell line); experiment: NCI-60 single-dose assay; type: cell-based, human; details: human
In short: as §1

[14] = test system: KM12 (colon cancer cell line); experiment: NCI-60 single-dose assay; type: cell-based, human; details: Homo sapiens, KM12, read-out: growth inhibition (GI%) and cytotoxicity (negative values)
In short: as §1

[15] = test system: SW-620 (colon cancer cell line); experiment: NCI-60 five-dose assay; type: cell-based, human; details: Homo sapiens; SW-620; five doses (10^−4–10^−8 M); read-out: Growth inhibition 50 (GI50)
[16] = test system: SK-MEL-28 (melanoma cell line); experiment: NCI-60 five-dose assay
[17] = test system: IAV strain A/PR/8/34 (H1N1); experiment: microbe, parasite or virus in culture; details: Influenza A virus, MDCK, read-out: IAV/MDCK EC50

## O=C(NCCCN1CCN(Cc2ccccc2)CC1)c1c(Cl)[nH]c2c1CCCc1ccccc1-2 [Compound 20, N-(3-(4-Benzylpiperazin-1-yl)propyl)-2-chloro-1,4,5,6-tetrahydrobenzo[6,7]cyclohepta[1,2-b]pyrrole-3-carboxamide]
[1]; Homo sapiens, SK-MEL-5, read-out: Growth inhibition 50 (GI50)
  GI50: 1.79 µM
[1]; Homo sapiens, SK-MEL-5, read-out: LC50 (molar concentration leading to 50% net cell death)
  CC50: 6.46 µM
[1]; SK-MEL-5
  TGI (molar concentration giving total growth inhibition): 3.39 µM
[2]; Homo sapiens, UACC-257, read-out: Growth inhibition 50 (GI50)
  GI50: 1.87 µM
[2]; Homo sapiens, UACC-257, read-out: LC50 (molar concentration leading to 50% net cell death)
  CC50: 26.9 µM
[2]; UACC-257
  TGI (molar concentration giving total growth inhibition): 6.61 µM
[3]
  pEC50: 5.32
[4]
  growth inhibition (GI%) reached against cancer cell lines of the NCI-60 panel: > 90%
[5]
  GI50: 4.17 µM
[6]; Homo sapiens, UACC-62, read-out: Growth inhibition 50 (GI50)
  GI50: 6.93 µM
[6]; Homo sapiens, UACC-62, read-out: LC50 (molar concentration leading to 50% net cell death)
  CC50: 45.7 µM
[6]; UACC-62
  TGI (molar concentration giving total growth inhibition): 19.95 µM
[7]; Homo sapiens, SK-MEL-2, read-out: Growth inhibition 50 (GI50)
  GI50: 13.7 µM
[7]; Homo sapiens, SK-MEL-2, read-out: LC50 (molar concentration leading to 50% net cell death)
  CC50: 53.7 µM
[7]; SK-MEL-2
  TGI (molar concentration giving total growth inhibition): 26.91 µM
[8]; Homo sapiens, M14, read-out: Growth inhibition 50 (GI50)
  GI50: 2.01 µM
[8]; Homo sapiens, M14, read-out: LC50 (molar concentration leading to 50% net cell death)
  CC50: 8.71 µM
[8]; M14
  TGI (molar concentration giving total growth inhibition): 4.17 µM
[9]
  inhibition at 10 µM: < 60%
[10]
  growth inhibition (GI%) and cytotoxicity (negative values): −58.02%
[11]
  growth inhibition (GI%) and cytotoxicity (negative values): −59.22%
[12]
  inhibition at 10 µM: 99.4%
[13]
  growth inhibition (GI%) and cytotoxicity (negative values): −91.84%
[14]
  inhibition at 10 µM: 70.3%
[15]
  GI50: 3.59 µM
[16]; Homo sapiens, SK-MEL-28, read-out: Growth inhibition 50 (GI50)
  GI50: 2.11 µM
[16]; Homo sapiens, SK-MEL-28, read-out: LC50 (molar concentration leading to 50% net cell death)
  CC50: 13.2 µM
[16]; SK-MEL-28
  TGI (molar concentration giving total growth inhibition): 4.9 µM
[17]
  pEC50: 4.75
